Results reported in US20090176811A1, “Substituted 5,6,7,8-Tetrahydro-pyrido[4,3-d]pyrimidine-2-yl Compounds and 5,6,7,8-Tetrahydro-quinazoline-2-yl Compounds” (GRUENENTHAL GmbH, priority 2004, published 2009).

How the values were obtained:
5-HT transporter = molecular target: T1, 5-HT transporter (Rattus norvegicus, UniProt P31652); assay: 5-HT uptake inhibition in rat brain synaptosomes (medulla and pons); type: biochemical
T1 construct: from tissue; host or cells: rat medulla and pons synaptosomes (P2 fraction)
Text: (§1) I. Method for Determining Noradrenalin and 5-HT Uptake Inhibition:
(§2) Synaptosomes from rat brain regions are freshly isolated for in vitro studies, as described in the publication “The isolation of nerve endings from brain” by E. G. Gray and V. P. Whittaker, J. Anatomy 96, pages 79-88, 1962. The corresponding literature description is hereby introduced as a reference and is deemed to be part of the disclosure.
(§3) The tissue (hypothalamus for the determination of noradrenalin uptake inhibition and medulla and pons for the determination of 5-HT uptake inhibition) is homogenised in ice-cooled 0.32 M sucrose (100 mg of tissue/1 mL) in a glass homogeniser with Teflon pestle using five complete up and down strokes at 840 revolutions/minute.
(§4) The homogenate is centrifuged at 4° C. for 10 minutes at 1000 g. After subsequent centrifugation at 17000 g for 55 minutes, the synaptosomes (P2 fraction) are obtained, which are resuspended in 0.32 M […] (0.5 mL/100 mg of original weight).
(§5) The particular uptake is measured in a 96-well microtitre plate. The volume is 250 μl and the incubation proceeds at room temperature (approx. 20-25° C.) under an O2 atmosphere.
(§6) The incubation time is 7.5 minutes for [^3H]-NA and 5 minutes for [^3H]-5-HT.
(§7) The 96 samples are then filtered through a Unifilter GF/B microtitre plate (Packard) and washed with 200 mL of incubated buffer using a “Brabdel MPXRI-96T Cell-Harvester”. The Unifilter GF/B plate is dried for 1 hour at 55° C. The plate is then sealed with a Back seal (Packard) and 35 μl of scintillation fluid are added per well (Ultima Gold, Packard). After sealing with a top seal (Packard) and establishing an equilibrium (around 5 hours), radioactivity is determined in a “Trilux 1450 Microbeta” (Wallac).
(§8) The quantity of protein used in the above determination corresponds to the values known from the literature, as for example described in “Protein measurement with the folin phenol reagent”, Lowry et al., J. Biol. Chem., 193, 265-275, 1951.
(§9) A detailed description of the method may additionally be found in the literature, for example in M. Ch. Frink, H.-H. Hennies, W. Engelberger, M. Haurand and B. Wilffert (1996) Arzneim.-Forsch./Drug Res. 46 (III), 11, 1029-1036.
(§10) The corresponding literature descriptions are hereby introduced in each case as a reference and are deemed to be part of the present disclosure.
(§11) The following characteristics were determined for the NA or 5-HT transporter: […]

NA transporter = molecular target: T2, NA transporter (Rattus norvegicus, UniProt Q63380); assay: Noradrenalin uptake inhibition in rat brain synaptosomes (hypothalamus); type: biochemical
T2 construct: from tissue; host or cells: rat hypothalamus synaptosomes (P2 fraction)
Text: as §1, §2, §3, §4, §5, §6, §7, §8, §9, §10, §11

T1 sequence (P31652 whole entry): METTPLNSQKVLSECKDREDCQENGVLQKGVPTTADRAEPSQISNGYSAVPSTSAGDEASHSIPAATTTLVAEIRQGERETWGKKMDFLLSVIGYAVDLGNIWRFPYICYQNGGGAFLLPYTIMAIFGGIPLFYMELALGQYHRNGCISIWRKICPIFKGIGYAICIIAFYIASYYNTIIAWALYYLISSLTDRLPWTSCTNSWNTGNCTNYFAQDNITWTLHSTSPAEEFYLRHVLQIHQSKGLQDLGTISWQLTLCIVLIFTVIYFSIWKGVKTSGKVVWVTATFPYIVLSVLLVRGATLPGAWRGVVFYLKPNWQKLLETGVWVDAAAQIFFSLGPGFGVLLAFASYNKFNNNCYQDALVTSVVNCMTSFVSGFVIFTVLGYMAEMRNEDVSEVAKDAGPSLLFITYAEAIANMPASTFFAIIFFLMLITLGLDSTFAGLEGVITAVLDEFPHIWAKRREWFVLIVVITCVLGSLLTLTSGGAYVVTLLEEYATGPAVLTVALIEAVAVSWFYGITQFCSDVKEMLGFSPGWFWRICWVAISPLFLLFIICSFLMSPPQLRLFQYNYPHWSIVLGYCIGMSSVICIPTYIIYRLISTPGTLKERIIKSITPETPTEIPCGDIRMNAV
T2 sequence (Q63380 1-617): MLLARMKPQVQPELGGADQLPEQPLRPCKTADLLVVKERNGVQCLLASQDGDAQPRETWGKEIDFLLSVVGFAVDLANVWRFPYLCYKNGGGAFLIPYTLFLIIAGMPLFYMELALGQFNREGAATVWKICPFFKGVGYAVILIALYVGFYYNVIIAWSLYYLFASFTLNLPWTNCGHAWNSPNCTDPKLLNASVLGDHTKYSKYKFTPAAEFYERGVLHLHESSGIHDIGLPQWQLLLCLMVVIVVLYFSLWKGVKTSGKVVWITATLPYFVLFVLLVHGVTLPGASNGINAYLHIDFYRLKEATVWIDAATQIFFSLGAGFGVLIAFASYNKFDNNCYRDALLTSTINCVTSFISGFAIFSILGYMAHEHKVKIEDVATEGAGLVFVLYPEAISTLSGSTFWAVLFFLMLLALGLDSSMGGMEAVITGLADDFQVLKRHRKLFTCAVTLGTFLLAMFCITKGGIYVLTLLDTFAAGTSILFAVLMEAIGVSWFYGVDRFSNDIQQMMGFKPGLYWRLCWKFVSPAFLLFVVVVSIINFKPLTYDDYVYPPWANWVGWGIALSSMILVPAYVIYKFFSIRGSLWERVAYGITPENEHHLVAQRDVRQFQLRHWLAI

Row | Compound | inhibition at 1 µM (5-HT transporter) | inhibition at 10 µM (NA transporter) | 5-HT uptake, rat, 1 μM, % inhibition (5-HT transporter) | NA uptake, rat, 10 μM, % inhibition (NA transporter)
1 | Cc1ccccc1C(=O)N1CCc2nc(NC(=O)c3cccc(Cl)c3)ncc2C1 [Example 109, 3-chloro-N-[6-(2-methyl-benzoyl)-5,6,7,8-tetrahydro-pyrido[4,3-d]pyrimidin-2-yl]-benzamide] | 30% | 92% | – | –
2 | O=C(Nc1ncc2c(n1)CCN(S(=O)(=O)c1cccc(Br)c1)C2)c1cccc(Cl)c1 [Example 125, N-[6-(3-bromo-benzenesulfonyl)-5,6,7,8-tetrahydro-pyrido[4,3-d]pyrimidin-2-yl]-3-chloro-benzamide] | 43% | 70% | – | –
3 | COc1ccccc1C(=O)Nc1ncc2c(n1)CCN(S(=O)(=O)c1c(C)cc(OC)c(C)c1C)C2 [Example 158, 2-methoxy-N-[6-(4-methoxy-2,3,6-trimethyl-benzenesulfonyl)-5,6,7,8-tetrahydro-pyrido[4,3-d]pyrimidin-2-yl]-benzamide] | 55% | 36% | – | –
4 | CCc1ccc(C(=O)Nc2ncc3c(n2)CCN(S(=O)(=O)c2ccsc2)C3)cc1 [Example 121, 4-ethyl-N-[6-(thiophene-3-sulfonyl)-5,6,7,8-tetrahydro-pyrido[4,3-d]pyrimidin-2-yl]-benzamide] | 52% | 92% | – | –
5 | O=C(Nc1ncc2c(n1)CCN(S(=O)(=O)c1ccc(Cl)s1)C2)c1cccc2ccccc12 [Example 117, naphthalene-1-carboxylic acid [6-(5-chloro-thiophene-2-sulfonyl)-5,6,7,8-tetrahydro-pyrido[4,3-d]pyrimidin-2-yl]-amide] | 32% | 31% | – | –
6 | O=C(Nc1ncc2c(n1)CCN(C(=O)c1sc3ccccc3c1Cl)C2)c1cccs1 [Example 110, thiophene-2-carboxylic acid [6-(3-chloro-benzo[b]thiophene-2-carbonyl)-5,6,7,8-tetrahydro-pyrido[4,3-d]pyrimidin-2-yl]-amide] | 96% | 75% | – | –
7 | O=C(Nc1ncc2c(n1)CCN(C(=O)Cc1c(Cl)cccc1Cl)C2)c1cccc(Cl)c1 [Example 187, 3-chloro-N-{6-[2-(2,6-dichloro-phenyl)-acetyl]-5,6,7,8-tetrahydro-pyrido[4,3-d]pyrimidin-2-yl}-benzamide] | 29% | 100% | – | –
8 | O=C(Nc1ncc2c(n1)CCN(S(=O)(=O)c1ccc(OC(F)(F)F)cc1)C2)c1ccc(Cl)c(Cl)c1 [Example 134, 3,4-dichloro-N-[6-(4-trifluoromethoxy-benzenesulfonyl)-5,6,7,8-tetrahydro-pyrido[4,3-d]pyrimidin-2-yl]-benzamide] | 58% | 59% | – | –
9 | CCc1ccc(C(=O)Nc2ncc3c(n2)CCN(S(=O)(=O)c2ccc4c(c2)CN(C(=O)C(F)(F)F)CC4)C3)cc1 [Example 157, 4-ethyl-N-{6-[2-(2,2,2-trifluoro-acetyl)-1,2,3,4-tetrahydro-isoquinoline-7-sulfonyl]-5,6,7,8-tetrahydro-pyrido[4,3-d]pyrimidin-2-yl}-benzamide] | 43% | 61% | – | –
10 | CC(C)(C)c1ccc(C(=O)Nc2ncc3c(n2)CCN(S(=O)(=O)c2ccc([N+](=O)[O-])cc2)C3)cc1 [Example 83, 4-tert-butyl-N-[6-(4-nitro-benzenesulfonyl)-5,6,7,8-tetrahydro-pyrido[4,3-d]pyrimidin-2-yl]-benzamide] | 39% | 77% | – | –
11 | CCc1ccc(C(=O)Nc2ncc3c(n2)CCN(C(=O)c2ccc(Cl)c(Cl)c2)C3)cc1 [Example 101, N-[6-(3,4-dichloro-benzoyl)-5,6,7,8-tetrahydro-pyrido[4,3-d]pyrimidin-2-yl]-4-ethyl-benzamide] | 65% | 84% | – | –
12 | O=C(Nc1ncc2c(n1)CCN(C(=O)c1ccc3ccccc3c1)C2)c1ccc(Cl)cc1 [Example 69] | – | – | 70% | 73%
13 | O=C(Nc1ncc2c(n1)CCN(C(=O)C1=Cc3ccccc3OC1)C2)c1ccc(F)c(F)c1 [Example 175, N-[6-(2H-chromene-3-carbonyl)-5,6,7,8-tetrahydro-pyrido[4,3-d]pyrimidin-2-yl]-3,4-difluoro-benzamide] | 32% | 46% | – | –
14 | CCc1ccc(C(=O)Nc2ncc3c(n2)CCN(C(=O)c2ccc(-n4cccn4)cc2)C3)cc1 [Example 74, 4-ethyl-N-[6-(4-pyrazol-1-yl-benzoyl)-5,6,7,8-tetrahydro-pyrido[4,3-d]pyrimidin-2-yl]-benzamide] | 54% | 43% | – | –
15 | O=C(Nc1ncc2c(n1)CCN(C(=O)Cc1ccc(Cl)cc1)C2)c1ccc(Cl)c(Cl)c1 [Example 126, 3,4-dichloro-N-{6-[2-(4-chloro-phenyl)-acetyl]-5,6,7,8-tetrahydro-pyrido[4,3-d]pyrimidin-2-yl}-benzamide] | 55% | 89% | – | –
16 | O=C(Nc1ncc2c(n1)CCN(C(=O)c1ccc(-c3cccs3)cc1)C2)c1cc(Cl)cc(Cl)c1 [Example 144, 3,5-dichloro-N-[6-(4-thiophen-2-yl-benzoyl)-5,6,7,8-tetrahydro-pyrido[4,3-d]pyrimidin-2-yl]-benzamide] | 42% | 67% | – | –
17 | Cc1cc(C)c(C)c(S(=O)(=O)N2CCc3nc(NC(=O)c4cccs4)ncc3C2)c1C [Example 99, thiophene-2-carboxylic acid [6-(2,3,5,6-tetramethyl-benzenesulfonyl)-5,6,7,8-tetrahydro-pyrido[4,3-d]pyrimidin-2-yl]-amide] | 41% | 56% | – | –
18 | O=C(Nc1ncc2c(n1)CCN(C(=O)C1CCc3ccccc3C1)C2)c1cccc(F)c1 (stereo not shown) [Example 141, 3-fluoro-N-[6-(1,2,3,4-tetrahydro-naphthalene-2-carbonyl)-5,6,7,8-tetrahydro-pyrido[4,3-d]pyrimidin-2-yl]-benzamide] | 54% | 55% | – | –
19 | O=C(Nc1ncc2c(n1)CCN(S(=O)(=O)c1ccc(Cl)cc1)C2)c1ccc(Cl)c(Cl)c1 [Example 71, 3,4-dichloro-N-[6-(4-chloro-benzenesulfonyl)-5,6,7,8-tetrahydro-pyrido[4,3-d]pyrimidin-2-yl]-benzamide] | 47% | 74% | – | –
20 | O=C(Nc1ncc2c(n1)CCN(C(=O)c1ccc(OC(F)(F)F)cc1)C2)c1cc(Cl)cc(Cl)c1 [Example 192, 3,5-dichloro-N-[6-(4-trifluoromethoxy-benzoyl)-5,6,7,8-tetrahydro-pyrido[4,3-d]pyrimidin-2-yl]-benzamide] | 47% | 73% | – | –
21 | Cc1cc(C)c(S(=O)(=O)N2CCc3nc(NC(=O)c4ccc(Cl)c(Cl)c4)ncc3C2)c(C)c1 [Example 95, 3,4-dichloro-N-[6-(2,4,6-trimethyl-benzenesulfonyl)-5,6,7,8-tetrahydro-pyrido[4,3-d]pyrimidin-2-yl]-benzamide] | 59% | 72% | – | –
22 | Cc1cccc(C(=O)Nc2ncc3c(n2)CCN(S(=O)(=O)c2cccc(C)c2)C3)c1 [Example 116, 3-methyl-N-[6-(toluene-3-sulfonyl)-5,6,7,8-tetrahydro-pyrido[4,3-d]pyrimidin-2-yl]-benzamide] | 31% | 52% | – | –
23 | COc1ccc(C(=O)N2CCc3nc(NC(=O)c4cccc(Cl)c4)ncc3C2)cc1OC [Example 119, 3-chloro-N-[6-(3,4-dimethoxy-benzoyl)-5,6,7,8-tetrahydro-pyrido[4,3-d]pyrimidin-2-yl]-benzamide] | 34% | 72% | – | –
